Laboratory results published in ChEMBL document CHEMBL5338716, “Synthesis and anti-trypanosomal evaluation of novel N-branched acyclic nucleoside phosphonates bearing 7-aryl-7-deazapurine nucleobase” (Eur J Med Chem, 2022).

Key:
[1] = Cytotoxicity against human HL-60 cells assessed as cell growth inhibition; format: toxicity, cell-based
[2] = Cytotoxicity against human NHDF cells assessed as cell growth inhibition; format: toxicity, cell-based
[3] = Cytotoxicity against human HeLa S3 cells assessed as cell growth inhibition; format: toxicity, cell-based
[4] = system: Trypanosoma brucei brucei; assay: Antitrypanosomal activity against Trypanosoma brucei brucei assessed as reduction in parasite growth by cell-based assay; format: functional, organism-based
[5] = Cytotoxicity against human CCRF-CEM cells assessed as cell growth inhibition; format: toxicity, cell-based
[6] = Selectivity index, ratio of IC50 for human NHDF cells to EC50 for Trypanosoma brucei brucei; format: functional
[7] = Cytotoxicity against human HepG2 cells assessed as cell growth inhibition; format: toxicity, cell-based
[8] = Binding affinity to Trypanosoma brucei […] assessed as inhibition constant
[9] = Selectivity index, ratio of EC50 for human MRC5 cells to EC50 for Trypanosoma brucei brucei; format: functional

Row | Compound | IC50 [1] [µM] | IC50 [2] [µM] | IC50 [3] [µM] | EC50 [4] [µM] | IC50 [5] [µM] | Selectivity Index [6] | IC50 [7] [µM] | Ki [8] [µM] | Ratio EC50 [9]
1 | CCOC(=O)[C@H](Cc1ccccc1)NP(=O)(CCN(CC#N)CCn1cc(-c2ccc(OC)cc2)c2c(N)ncnc21)N[C@@H](Cc1ccccc1)C(=O)OCC | 6.7 | 7.9 | > 20 | 2.24 | 4.2 | 3.5 | > 20 |  | 
2 | N#CCCN(CCn1cc(-c2ccccc2)c2c(N)ncnc21)CCP(=O)(O)O |  |  |  |  |  |  |  | 1.73 | 
3 | COc1ccc(-c2cn(CCN(CCC#N)CCP(=O)(O)O)c3ncnc(N)c23)cc1 |  |  |  |  |  |  |  | 2.2 | 
4 | CCOC(=O)[C@H](Cc1ccccc1)NP(=O)(CCN(CCO)CCn1cc(-c2ccc(OC)cc2)c2c(N)ncnc21)N[C@@H](Cc1ccccc1)C(=O)OCC | > 20 | 13.2 | > 20 | 3.47 | 6.2 | 3.8 | > 20 |  | 
5 | CCOC(=O)[C@H](Cc1ccccc1)NP(=O)(CCN(CCn1cc(-c2ccc(OC)cc2)c2c(N)ncnc21)CCP(=O)(N[C@@H](Cc1ccccc1)C(=O)OCC)N[C@@H](Cc1ccccc1)C(=O)OCC)N[C@@H](Cc1ccccc1)C(=O)OCC | 4.6 | 9.5 | 5.4 | 0.58 | 4 | 16.4 | 6.6 |  | 
6 | N#CCN(CCn1cc(-c2ccccc2)c2c(N)ncnc21)CCP(=O)(O)O |  |  |  |  |  |  |  | 9.5 | 
7 | CCOC(=O)[C@H](Cc1ccccc1)NP(=O)(CCN(CC#N)CCn1cc(-c2ccccc2)c2c(N)ncnc21)N[C@@H](Cc1ccccc1)C(=O)OCC | 8.7 | 10.4 | 11 | 1.61 | 5.9 | 6.5 | > 20 |  | 
8 | CCOC(=O)[C@H](Cc1ccccc1)NP(=O)(CCN(CCC#N)CCn1cc(-c2ccc(OC)cc2)c2c(N)ncnc21)N[C@@H](Cc1ccccc1)C(=O)OCC | > 20 | 16.4 | > 20 | 6.81 | > 20 | 2.4 | > 20 |  | 
9 | Nc1ncnc2c1c(-c1ccccc1)cn2CCN(CCP(=O)(O)O)CCP(=O)(O)O |  |  |  |  |  |  |  | 10.7 | 
10 | COc1ccc(-c2cn(CCN(CC#N)CCP(=O)(O)O)c3ncnc(N)c23)cc1 |  |  |  |  |  |  |  | 10.9 | 
11 | Nc1ncnc2c1c(-c1ccccc1)cn2CCN(CCO)CCP(=O)(O)O |  |  |  |  |  |  |  | 14.1 | 
12 | CCOC(=O)[C@H](Cc1ccccc1)NP(=O)(CCN(CCC#N)CCn1cc(-c2ccccc2)c2c(N)ncnc21)N[C@@H](Cc1ccccc1)C(=O)OCC | 8.6 | > 20 | > 20 | 4.19 | 5.6 | >4.8 | 14.1 |  | 
13 | CCOC(=O)[C@H](Cc1ccccc1)NP(=O)(CCN(CCn1cc(-c2ccccc2)c2c(N)ncnc21)CCP(=O)(N[C@@H](Cc1ccccc1)C(=O)OCC)N[C@@H](Cc1ccccc1)C(=O)OCC)N[C@@H](Cc1ccccc1)C(=O)OCC | 4.2 | 8.9 | 4.9 | 1.21 | 3.8 | 7.4 | 6.3 |  | 
14 | COc1ccc(-c2cn(CCN(CCO)CCP(=O)(O)O)c3ncnc(N)c23)cc1 |  |  |  |  |  |  |  | 2.25 | 
15 | CCOC(=O)[C@H](Cc1ccccc1)NP(=O)(CCN(CCO)CCn1cc(-c2ccccc2)c2c(N)ncnc21)N[C@@H](Cc1ccccc1)C(=O)OCC | > 20 | 18.9 | > 20 | 1.9 | 6.7 | 10 | 14.7 |  | 
16 | COc1ccc(-c2cn(CCN(CCP(=O)(O)O)CCP(=O)(O)O)c3ncnc(N)c23)cc1 |  |  |  |  |  |  |  | 3.97 | 
17 | Nc1ncnc2c1ccn2[C@@H]1O[C@H](CO)[C@@H](O)[C@H]1O [TUBERCIDIN] | 0.14 | 0.07 | 0.1 | 0.16 | 0.11 | 0.4 | 0.05 | ~330 | 4
